Experimental data reported in patent US9790235B2, “MK2 inhibitors and uses thereof” (Celgene CAR LLC, priority 2014, dated 2017).
Like-named read-outs stand apart in the source and are kept apart here.

How the values were obtained:
[1] = molecular target: p38α activated, mitogen-activated protein kinase-activated protein kinase 2 (MAPKAP-K2 or MK2) enzyme (Homo sapiens (Human), UniProt P49137); test: MK2 Omnia continuous-read kinase assay for compound potency; type: biochemical
Procedure, shortened: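 Continuous fluorescence read (λex360/λem485) with 0.4 nM p38α-activated MK2, 10 μM ATP (apparent KM) and 10 μM S/T3-Sox peptide, monitored over 120 min at room temperature. Background-corrected initial slopes gave % inhibition and IC50 with Hill slope; exponential fits gave kobs, yielding apparent kinact/KI.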

MK2 [2] = molecular target: T1, MK2 (Homo sapiens (Human), UniProt P49137); test: MK2 cellular assay, total and phospho-Hsp27 (Serine 78) by MSD ELISA (Thp1); type: cell-based
T1 sequence (P49137 whole entry): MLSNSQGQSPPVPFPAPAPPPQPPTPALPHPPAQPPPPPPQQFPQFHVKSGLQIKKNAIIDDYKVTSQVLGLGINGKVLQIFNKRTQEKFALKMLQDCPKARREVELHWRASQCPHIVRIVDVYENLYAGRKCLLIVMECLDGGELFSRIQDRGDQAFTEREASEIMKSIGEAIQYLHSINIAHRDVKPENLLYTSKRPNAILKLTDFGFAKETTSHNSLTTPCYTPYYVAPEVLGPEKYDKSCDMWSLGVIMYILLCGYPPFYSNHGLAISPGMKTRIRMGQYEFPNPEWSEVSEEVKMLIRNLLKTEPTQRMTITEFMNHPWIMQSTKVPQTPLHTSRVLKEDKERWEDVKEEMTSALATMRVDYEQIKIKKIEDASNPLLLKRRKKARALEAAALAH
Procedure, shortened: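 PMA-differentiated (10 ng/mL, 72 h) Thp-1 cells were pretreated with compound (top 3000 nM) for 1 h at 37 °C, then stimulated with 50 ng/mL LPS for 45 min. Lysate phospho-Hsp27 (Ser78) and total Hsp27 were read by MSD electrochemiluminescence ELISA, and the value is expressed as percent phospho/total signal per well.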

MK2 [3] = molecular target: T1, MK2
[4] = percentage of modified protein after 60 minutes at room temperature, 10-fold excess of compound, MALDI (I-1 to I-50), magnetic bead MALDI (I-51 to I-129)
[5] = [MK-2]=0.4 nM, [ATP]=10 μM, [ST3-Sox]=10 μM, read-out: MK2 IC50
[6] = Thp-1 cells, 1 hour compound, 50 ng/mL LPS 45 minutes, p-HSP27 (Ser78)/total HSP27, read-out: pHSP27 signaling EC50
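For Mass Modification in this document: covalent binding read from centroid mass shift of compound-treated versus untreated intact MK2, shift divided by compound molecular weight, giving fraction of total protein bound.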

p38α activated, mitogen-activated protein kinase-activated protein kinase 2 (MAPKAP-K2 or MK2) enzyme, sequence (P49137 whole entry): as above

Row | IC50 [1, 5] [nM] | Structure (SMILES) | IC50 [1] [nM] | EC50 (MK2 [2]) [nM] | Mass Modification (MK2 [3]; [4]) | EC50 (MK2 [2]; [6]) [nM] | IC50 ([1]; read-out: MK2 IC50) [nM] | Mass Modification (MK2 [3])
1 | – | C[C@@H]1CNc2c(sc3ccc4nc(Oc5nc(Cl)ncc5CN5C6CCC5COC6)ccc4c23)C(=O)N1 [I-114, (R)-3-((5-((3-oxa-8-azabicyclo[3.2.1]octan-8-yl)methyl)-2-chloropyrimidin-4-yl)oxy)-10-methyl-9,10,11,12-tetrahydro-8H-[1,4]diazepino[5′,6′:4,5]thieno[3,2-f]quinolin-8-one] | 101 to 500 | < 100 | E (mass modification of ≧70%) | – | – | –
2 | < 100 | C[C@@H]1CNc2c(sc3ccc4nc(Oc5nc(F)nc6c5COC6)ccc4c23)C(=O)N1 [I-119, (R)-3-((2-fluoro-5,7-dihydrofuro[3,4-d]pyrimidin-4-yl)oxy)-10-methyl-9,10,11,12-tetrahydro-8H-[1,4]diazepino[5′,6′:4,5]thieno[3,2-f]quinolin-8-one] | – | – | F (mass modification of 31-69%) | < 100 | – | –
3 | < 100 | C[C@@H]1CNc2c(sc3ccc4nc(Oc5nc(Cl)ncc5C5=CCN(C)CC5)ccc4c23)C(=O)N1 [I-122] | – | – | E (mass modification of ≧70%) | 101 to 500 | – | –
4 | < 100 | C[C@@H]1CNc2c(sc3ccc4nc(Oc5nc(Cl)ncc5C5=CCOCC5)ccc4c23)C(=O)N1 [I-124, (R)-3-((2-chloro-5-(3,6-dihydro-2H-pyran-4-yl)pyrimidin-4-yl)oxy)-10-methyl-9,10,11,12-tetrahydro-8H-[1,4]diazepino[5′,6′:4,5]thieno[3,2-f]quinolin-8-one] | – | – | E (mass modification of ≧70%) | 101 to 500 | – | –
5 | – | C[C@@H]1CNc2c(sc3ccc4nc(Oc5nc(Cl)nc6c5CN(C)CC6)ccc4c23)C(=O)N1 [I-126, (R)-3-((2-chloro-6-methyl-5,6,7,8-tetrahydropyrido[4,3-d]pyrimidin-4-yl)oxy)-10-methyl-9,10,11,12-tetrahydro-8H-[1,4]diazepino[5′,6′:4,5]thieno[3,2-f]quinolin-8-one] | – | – | – | < 100 | < 100 | E (key: E: mass modification of ≧70%; F: mass modification of 31-69%; G: mass modification ≦30%)
6 | < 100 | C[C@@H]1CNc2c(sc3ccc4nc(Oc5nc(Cl)ncc5CN5CCC(OCCF)CC5)ccc4c23)C(=O)N1 [I-131, (R)-3-((2-chloro-5-((4-(2-fluoroethoxy)piperidin-1-yl)methyl)pyrimidin-4-yl)oxy)-10-methyl-9,10,11,12-tetrahydro-8H-[1,4]diazepino[5′,6′:4,5]thieno[3,2-f]quinolin-8-one] | – | – | E (mass modification of ≧70%) | < 100 | – | –

Row | Structure (SMILES) | IC50 [1, 5] [nM] | IC50 [1] [nM] | EC50 (MK2 [2]) [nM] | Mass Modification (MK2 [3]; [4]) | EC50 (MK2 [2]; [6]) [nM] | IC50 ([1]; read-out: MK2 IC50) [nM] | Mass Modification (MK2 [3])
7 | C[C@@H]1CNc2c(sc3ccc4nc(Oc5nc(Cl)ncc5CN5C[C@@H](C)N[C@@H](C)C5)ccc4c23)C(=O)N1 [I-115, (R)-3-((2-chloro-5-(((3R,5S)-3,5-dimethylpiperazin-1-yl)methyl)pyrimidin-4-yl)oxy)-10-methyl-9,10,11,12-tetrahydro-8H-[1,4]diazepino[5′,6′:4,5]thieno[3,2-f]quinolin-8-one] | 101 to 500 | – | – | E (mass modification of ≧70%) | > 1000 | – | –
8 | C[C@@H]1CNc2c(sc3ccc4nc(Oc5nc(Cl)ncc5Br)ccc4c23)C(=O)N1 [I-116, (R)-3-((5-bromo-2-chloropyrimidin-4-yl)oxy)-10-methyl-9,10,11,12-tetrahydro-8H-[1,4]diazepino[5′,6′:4,5]thieno[3,2-f]quinolin-8-one] | < 100 | – | – | E (mass modification of ≧70%) | < 100 | – | –
9 | C[C@@H]1CNc2c(sc3ccc4nc(Oc5cc(CN(C)C(C)(C)C)nc(Cl)n5)ccc4c23)C(=O)N1 [I-118, (R)-3-((6-((tert-butyl(methyl)amino)methyl)-2-chloropyrimidin-4-yl)oxy)-10-methyl-9,10,11,12-tetrahydro-8H-[1,4]diazepino[5′,6′:4,5]thieno[3,2-f]quinolin-8-one] | 501 to 999 | – | – | E (mass modification of ≧70%) | 101 to 500 | – | –
